Assay results reported in the kinase profiling compilation of Christmann-Franck et al. (2016).

Key:
Assay in all cases: radiometric filter-binding kinase assay
PIM3 (human) = PIM3 (human) (UniProt Q86V86)
EPHA4 (human) = EPHA4 (human) (UniProt P54764)
[1] = system: SGK1 (human), O00141 [S422D]
CSNK1D (human) = CSNK1D (human) (UniProt P48730)
RIPK2 (human) = RIPK2 (human) (UniProt O43353)
AURKA (human) = AURKA (human) (UniProt O14965)
CLK2 (human) = CLK2 (human) (UniProt P49760)
EPHB2 (human) = EPHB2 (human) (UniProt P29323)
CDK2 CCNA2 (human) = CDK2 CCNA2 (human) (UniProt P20248+P24941)
MAP3K7 TAB1 (human) = MAP3K7 TAB1 (human) (UniProt Q15750+O43318)
MAPK8 (human) = MAPK8 (human) (UniProt P45983)
SYK (human) = SYK (human) (UniProt P43405)
IRAK4 (human) = IRAK4 (human) (UniProt Q9NWZ3)
TTK (human) = TTK (human) (UniProt P33981)
MAP2K2 (human) = MAP2K2 (human) (UniProt P36507)
TBK1 (human) = TBK1 (human) (UniProt Q9UHD2)
MELK (human) = MELK (human) (UniProt Q14680)
[2] = system: PAK2 (human), Q13177 [T402E]
PLK1 (human) = PLK1 (human) (UniProt P53350)
INSRR (human) = INSRR (human) (UniProt P14616)
BRSK1 (human) = BRSK1 (human) (UniProt Q8TDC3)
PIM1 (human) = PIM1 (human) (UniProt P11309)
MYLK (human) = MYLK (human) (UniProt Q15746)
MAPKAPK3 (human) = MAPKAPK3 (human) (UniProt Q16644)
MAP3K11 (human) = MAP3K11 (human) (UniProt Q16584)
BRSK2 (human) = BRSK2 (human) (UniProt Q8IWQ3)
CSK (human) = CSK (human) (UniProt P41240)
RPS6KA3 KD1 KD2 (human) = RPS6KA3 KD1 KD2 (human) (UniProt P51812)
MAPK12 (human) = MAPK12 (human) (UniProt P53778)
[3] = system: RPS6KB1 (human), P23443 [T412E]
INSR (human) = INSR (human) (UniProt P06213)
FLT1 (human) = FLT1 (human) (UniProt P17948)
FGFR1 (human) = FGFR1 (human) (UniProt P11362)
JAK2 JH1 JH2 (human) = JAK2 JH1 JH2 (human) (UniProt O60674)
MARK4 (human) = MARK4 (human) (UniProt Q96L34)

Chain of MYLK (human) (Q15746 whole entry, looked up): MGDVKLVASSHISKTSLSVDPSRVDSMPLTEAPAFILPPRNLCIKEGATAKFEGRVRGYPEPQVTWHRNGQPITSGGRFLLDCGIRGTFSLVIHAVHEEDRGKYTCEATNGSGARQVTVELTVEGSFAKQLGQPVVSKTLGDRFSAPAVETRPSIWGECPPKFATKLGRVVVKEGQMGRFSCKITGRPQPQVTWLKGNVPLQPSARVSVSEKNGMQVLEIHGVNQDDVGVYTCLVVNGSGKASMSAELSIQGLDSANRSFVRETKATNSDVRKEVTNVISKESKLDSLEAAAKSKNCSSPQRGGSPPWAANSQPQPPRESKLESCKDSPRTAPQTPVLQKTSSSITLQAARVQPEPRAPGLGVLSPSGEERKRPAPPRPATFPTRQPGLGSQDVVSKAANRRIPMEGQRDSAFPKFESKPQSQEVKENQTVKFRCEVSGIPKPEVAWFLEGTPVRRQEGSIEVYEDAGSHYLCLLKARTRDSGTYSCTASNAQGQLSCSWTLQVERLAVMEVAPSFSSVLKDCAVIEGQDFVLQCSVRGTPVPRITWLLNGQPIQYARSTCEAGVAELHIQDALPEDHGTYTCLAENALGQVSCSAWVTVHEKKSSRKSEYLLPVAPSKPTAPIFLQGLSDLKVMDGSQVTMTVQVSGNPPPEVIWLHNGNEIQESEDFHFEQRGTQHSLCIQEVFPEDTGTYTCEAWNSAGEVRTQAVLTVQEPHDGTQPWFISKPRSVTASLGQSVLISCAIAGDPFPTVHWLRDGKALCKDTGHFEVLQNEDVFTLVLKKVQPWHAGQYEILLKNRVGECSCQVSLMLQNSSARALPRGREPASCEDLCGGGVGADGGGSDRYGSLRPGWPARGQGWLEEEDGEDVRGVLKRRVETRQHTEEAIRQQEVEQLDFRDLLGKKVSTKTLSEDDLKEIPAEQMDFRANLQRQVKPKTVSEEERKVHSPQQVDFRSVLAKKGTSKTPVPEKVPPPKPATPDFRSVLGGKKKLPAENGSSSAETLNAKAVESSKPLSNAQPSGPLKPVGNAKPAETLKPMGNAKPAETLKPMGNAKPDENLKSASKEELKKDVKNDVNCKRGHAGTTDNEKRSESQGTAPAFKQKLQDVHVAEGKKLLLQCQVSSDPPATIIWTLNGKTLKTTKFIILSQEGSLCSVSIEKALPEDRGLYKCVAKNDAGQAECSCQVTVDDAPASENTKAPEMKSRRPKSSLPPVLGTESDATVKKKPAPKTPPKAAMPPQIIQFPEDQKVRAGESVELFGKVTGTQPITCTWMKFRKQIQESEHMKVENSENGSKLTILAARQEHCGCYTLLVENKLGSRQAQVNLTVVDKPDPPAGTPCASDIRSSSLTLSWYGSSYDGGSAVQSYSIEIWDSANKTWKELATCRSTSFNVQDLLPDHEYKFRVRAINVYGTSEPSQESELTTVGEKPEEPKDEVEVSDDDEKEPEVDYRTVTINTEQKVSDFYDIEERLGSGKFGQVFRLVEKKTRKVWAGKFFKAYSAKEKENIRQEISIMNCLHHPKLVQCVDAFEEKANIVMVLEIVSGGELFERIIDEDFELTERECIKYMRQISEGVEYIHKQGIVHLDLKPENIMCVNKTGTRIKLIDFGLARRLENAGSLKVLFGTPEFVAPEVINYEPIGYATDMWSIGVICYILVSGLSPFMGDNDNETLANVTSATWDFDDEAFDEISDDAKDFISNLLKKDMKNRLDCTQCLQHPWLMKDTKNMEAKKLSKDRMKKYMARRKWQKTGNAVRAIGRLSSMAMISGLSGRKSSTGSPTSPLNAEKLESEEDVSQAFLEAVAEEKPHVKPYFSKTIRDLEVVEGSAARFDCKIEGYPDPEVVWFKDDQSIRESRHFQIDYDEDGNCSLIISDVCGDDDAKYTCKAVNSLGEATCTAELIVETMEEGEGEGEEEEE
Chain of INSRR (human) (P14616 whole entry, looked up): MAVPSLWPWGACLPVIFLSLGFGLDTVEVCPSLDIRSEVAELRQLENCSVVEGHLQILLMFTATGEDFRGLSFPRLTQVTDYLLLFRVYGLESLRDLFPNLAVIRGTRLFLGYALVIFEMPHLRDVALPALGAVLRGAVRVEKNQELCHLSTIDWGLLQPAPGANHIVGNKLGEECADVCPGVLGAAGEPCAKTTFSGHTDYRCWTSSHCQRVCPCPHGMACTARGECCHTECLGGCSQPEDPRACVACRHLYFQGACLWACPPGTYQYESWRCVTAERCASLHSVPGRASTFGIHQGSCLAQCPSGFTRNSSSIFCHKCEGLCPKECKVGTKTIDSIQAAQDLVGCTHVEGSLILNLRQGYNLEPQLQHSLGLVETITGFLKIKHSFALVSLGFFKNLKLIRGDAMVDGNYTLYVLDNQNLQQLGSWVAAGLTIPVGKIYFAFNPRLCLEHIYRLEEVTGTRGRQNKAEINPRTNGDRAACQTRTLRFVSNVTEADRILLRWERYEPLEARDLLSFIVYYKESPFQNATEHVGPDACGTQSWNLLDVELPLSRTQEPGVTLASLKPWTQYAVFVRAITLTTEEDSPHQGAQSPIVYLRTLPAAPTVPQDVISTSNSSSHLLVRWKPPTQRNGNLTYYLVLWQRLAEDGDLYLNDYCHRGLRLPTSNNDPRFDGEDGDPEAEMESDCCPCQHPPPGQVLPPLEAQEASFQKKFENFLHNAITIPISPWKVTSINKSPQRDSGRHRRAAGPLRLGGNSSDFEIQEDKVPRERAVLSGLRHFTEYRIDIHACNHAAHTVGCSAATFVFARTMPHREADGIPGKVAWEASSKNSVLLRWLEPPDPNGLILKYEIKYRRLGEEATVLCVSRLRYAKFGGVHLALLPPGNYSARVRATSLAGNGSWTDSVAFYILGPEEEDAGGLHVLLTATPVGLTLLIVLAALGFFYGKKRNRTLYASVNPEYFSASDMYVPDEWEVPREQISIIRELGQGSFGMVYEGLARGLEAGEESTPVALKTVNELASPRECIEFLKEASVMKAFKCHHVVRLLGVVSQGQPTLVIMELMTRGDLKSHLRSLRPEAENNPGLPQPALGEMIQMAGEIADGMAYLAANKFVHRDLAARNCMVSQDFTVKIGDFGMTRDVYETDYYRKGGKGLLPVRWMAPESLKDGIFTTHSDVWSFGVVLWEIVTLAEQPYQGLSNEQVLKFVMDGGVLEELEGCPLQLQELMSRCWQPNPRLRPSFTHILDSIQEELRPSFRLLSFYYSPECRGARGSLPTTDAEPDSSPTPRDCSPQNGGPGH
Chain of MELK (human) (Q14680 whole entry, looked up): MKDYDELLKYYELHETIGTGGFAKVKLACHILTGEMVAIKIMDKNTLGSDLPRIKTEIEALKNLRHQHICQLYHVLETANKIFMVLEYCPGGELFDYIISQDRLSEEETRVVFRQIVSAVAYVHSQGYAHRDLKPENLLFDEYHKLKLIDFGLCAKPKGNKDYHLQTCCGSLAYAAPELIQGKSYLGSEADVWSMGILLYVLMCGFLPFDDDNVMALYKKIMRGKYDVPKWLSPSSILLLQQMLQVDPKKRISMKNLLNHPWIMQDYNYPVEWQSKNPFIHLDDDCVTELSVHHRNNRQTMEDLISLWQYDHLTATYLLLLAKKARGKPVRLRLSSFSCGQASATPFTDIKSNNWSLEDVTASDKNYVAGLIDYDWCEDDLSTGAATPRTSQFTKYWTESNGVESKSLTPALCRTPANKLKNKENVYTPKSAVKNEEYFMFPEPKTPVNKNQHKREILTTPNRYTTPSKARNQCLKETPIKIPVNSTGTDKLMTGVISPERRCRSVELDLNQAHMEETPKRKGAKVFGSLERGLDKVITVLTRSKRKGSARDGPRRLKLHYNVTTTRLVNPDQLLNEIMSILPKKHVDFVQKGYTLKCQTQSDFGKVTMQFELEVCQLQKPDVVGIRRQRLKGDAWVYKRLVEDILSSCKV
Chain of MAP3K11 (human) (Q16584 whole entry, looked up): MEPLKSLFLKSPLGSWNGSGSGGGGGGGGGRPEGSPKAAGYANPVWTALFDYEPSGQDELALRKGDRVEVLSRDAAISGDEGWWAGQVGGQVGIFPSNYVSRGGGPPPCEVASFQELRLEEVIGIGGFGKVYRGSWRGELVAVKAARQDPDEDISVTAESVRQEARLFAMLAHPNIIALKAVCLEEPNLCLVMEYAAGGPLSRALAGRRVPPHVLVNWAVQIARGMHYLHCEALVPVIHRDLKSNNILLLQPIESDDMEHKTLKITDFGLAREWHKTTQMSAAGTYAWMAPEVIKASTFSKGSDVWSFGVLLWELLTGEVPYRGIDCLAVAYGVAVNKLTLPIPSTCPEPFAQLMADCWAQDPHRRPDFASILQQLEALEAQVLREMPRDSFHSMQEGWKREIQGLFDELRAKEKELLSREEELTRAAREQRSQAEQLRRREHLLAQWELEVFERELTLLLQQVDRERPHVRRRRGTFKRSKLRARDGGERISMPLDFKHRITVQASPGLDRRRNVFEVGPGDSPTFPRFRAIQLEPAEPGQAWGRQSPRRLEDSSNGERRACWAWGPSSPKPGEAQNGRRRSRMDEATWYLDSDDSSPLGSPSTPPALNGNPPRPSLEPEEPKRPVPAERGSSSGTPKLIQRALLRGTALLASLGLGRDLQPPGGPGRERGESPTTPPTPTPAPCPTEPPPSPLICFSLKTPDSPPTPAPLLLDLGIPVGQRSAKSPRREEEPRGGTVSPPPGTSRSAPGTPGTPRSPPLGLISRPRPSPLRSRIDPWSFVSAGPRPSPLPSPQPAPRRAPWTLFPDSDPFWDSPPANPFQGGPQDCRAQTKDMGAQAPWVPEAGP
Chain of AURKA (human) (O14965 whole entry, looked up): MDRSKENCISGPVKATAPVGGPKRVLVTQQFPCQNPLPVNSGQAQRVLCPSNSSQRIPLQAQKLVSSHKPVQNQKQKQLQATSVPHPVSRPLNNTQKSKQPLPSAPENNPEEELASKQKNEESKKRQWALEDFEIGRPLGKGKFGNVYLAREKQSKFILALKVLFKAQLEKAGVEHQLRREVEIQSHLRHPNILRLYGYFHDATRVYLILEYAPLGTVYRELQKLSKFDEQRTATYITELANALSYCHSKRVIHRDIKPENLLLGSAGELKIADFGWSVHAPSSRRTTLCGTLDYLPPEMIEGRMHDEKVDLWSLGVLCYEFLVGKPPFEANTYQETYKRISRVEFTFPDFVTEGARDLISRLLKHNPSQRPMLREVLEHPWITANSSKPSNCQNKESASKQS

CNC(=O)C1[C@H]2O[C@@](C)([C@@H]1N)n1c3ccccc3c3c4c(c5c6ccccc6n2c5c31)C(=O)NC4 (stereo not given in full)
residual activity (PIM3 (human); compound 0.01 µM): 17% | residual activity (PIM3 (human); compound 0.1 µM): 10% | residual activity (PIM3 (human); compound 1.0 µM): 10% | residual activity (EPHA4 (human); compound 0.01 µM): 95% | residual activity (EPHA4 (human); compound 0.1 µM): 61% | residual activity (EPHA4 (human); compound 1.0 µM): 16% | residual activity ([1]; compound 0.01 µM): 79% | residual activity ([1]; compound 0.1 µM): 32% | residual activity ([1]; compound 1.0 µM): 10% | residual activity (CSNK1D (human); compound 0.01 µM): 109% | residual activity (CSNK1D (human); compound 0.1 µM): 107% | residual activity (CSNK1D (human); compound 1.0 µM): 96% | residual activity (RIPK2 (human); compound 0.01 µM): 80% | residual activity (RIPK2 (human); compound 0.1 µM): 26% | residual activity (RIPK2 (human); compound 1.0 µM): 9% | residual activity (AURKA (human); compound 0.01 µM): 28% | residual activity (AURKA (human); compound 0.1 µM): 4% | residual activity (AURKA (human); compound 1.0 µM): 5% | residual activity (CLK2 (human); compound 0.01 µM): 9% | residual activity (CLK2 (human); compound 0.1 µM): -1% | residual activity (CLK2 (human); compound 1.0 µM): -1% | residual activity (EPHB2 (human); compound 0.01 µM): 108% | residual activity (EPHB2 (human); compound 0.1 µM): 89% | residual activity (EPHB2 (human); compound 1.0 µM): 34% | residual activity (CDK2 CCNA2 (human); compound 0.01 µM): 18% | residual activity (CDK2 CCNA2 (human); compound 0.1 µM): 9% | residual activity (CDK2 CCNA2 (human); compound 1.0 µM): 8% | residual activity (MAP3K7 TAB1 (human); compound 0.01 µM): 111% | residual activity (MAP3K7 TAB1 (human); compound 0.1 µM): 2% | residual activity (MAP3K7 TAB1 (human); compound 1.0 µM): 2% | residual activity (MAPK8 (human); compound 0.01 µM): 91% | residual activity (MAPK8 (human); compound 0.1 µM): 4% | residual activity (MAPK8 (human); compound 1.0 µM): 1% | residual activity (SYK (human); compound 0.01 µM): 21% | residual activity (SYK (human); compound 0.1 µM): 6% | residual activity (SYK (human); compound 1.0 µM): 2% | residual activity (IRAK4 (human); compound 0.01 µM): 7% | residual activity (IRAK4 (human); compound 0.1 µM): 7% | residual activity (IRAK4 (human); compound 1.0 µM): 4% | residual activity (TTK (human); compound 0.01 µM): 37% | residual activity (TTK (human); compound 0.1 µM): 13% | residual activity (TTK (human); compound 1.0 µM): 7% | residual activity (MAP2K2 (human); compound 0.01 µM): 32% | residual activity (MAP2K2 (human); compound 0.1 µM): 17% | residual activity (MAP2K2 (human); compound 1.0 µM): 14% | residual activity (TBK1 (human); compound 0.01 µM): 22% | residual activity (TBK1 (human); compound 0.1 µM): 16% | residual activity (TBK1 (human); compound 1.0 µM): 12% | residual activity (MELK (human); compound 0.01 µM): 18% | residual activity (MELK (human); compound 0.1 µM): 10% | residual activity (MELK (human); compound 1.0 µM): 5% | residual activity ([2]; compound 0.01 µM): 71% | residual activity ([2]; compound 0.1 µM): 19% | residual activity ([2]; compound 1.0 µM): 4% | residual activity (PLK1 (human); compound 0.01 µM): 68% | residual activity (PLK1 (human); compound 0.1 µM): 38% | residual activity (PLK1 (human); compound 1.0 µM): 22% | residual activity (INSRR (human); compound 0.01 µM): 47% | residual activity (INSRR (human); compound 0.1 µM): 12% | residual activity (INSRR (human); compound 1.0 µM): 9% | residual activity (BRSK1 (human); compound 0.01 µM): 61% | residual activity (BRSK1 (human); compound 0.1 µM): 3% | residual activity (BRSK1 (human); compound 1.0 µM): 1% | residual activity (PIM1 (human); compound 0.01 µM): 71% | residual activity (PIM1 (human); compound 0.1 µM): 16% | residual activity (PIM1 (human); compound 1.0 µM): 1% | residual activity (MYLK (human); compound 0.01 µM): 48% | residual activity (MYLK (human); compound 0.1 µM): 4% | residual activity (MYLK (human); compound 1.0 µM): 1% | residual activity (MAPKAPK3 (human); compound 0.01 µM): 91% | residual activity (MAPKAPK3 (human); compound 0.1 µM): 74% | residual activity (MAPKAPK3 (human); compound 1.0 µM): 29% | residual activity (MAP3K11 (human); compound 0.01 µM): 17% | residual activity (MAP3K11 (human); compound 0.1 µM): 5% | residual activity (MAP3K11 (human); compound 1.0 µM): 3% | residual activity (BRSK2 (human); compound 0.01 µM): 16% | residual activity (BRSK2 (human); compound 0.1 µM): 10% | residual activity (BRSK2 (human); compound 1.0 µM): 8% | residual activity (CSK (human); compound 0.01 µM): 112% | residual activity (CSK (human); compound 0.1 µM): 73% | residual activity (CSK (human); compound 1.0 µM): 20% | residual activity (RPS6KA3 KD1 KD2 (human); compound 0.01 µM): 16% | residual activity (RPS6KA3 KD1 KD2 (human); compound 0.1 µM): 7% | residual activity (RPS6KA3 KD1 KD2 (human); compound 1.0 µM): 6% | residual activity (MAPK12 (human); compound 0.01 µM): 76% | residual activity (MAPK12 (human); compound 0.1 µM): 29% | residual activity (MAPK12 (human); compound 1.0 µM): 6% | residual activity ([3]; compound 0.01 µM): 37% | residual activity ([3]; compound 0.1 µM): 6% | residual activity ([3]; compound 1.0 µM): 3% | residual activity (INSR (human); compound 0.01 µM): 120% | residual activity (INSR (human); compound 0.1 µM): 76% | residual activity (INSR (human); compound 1.0 µM): 11% | residual activity (FLT1 (human); compound 0.01 µM): 17% | residual activity (FLT1 (human); compound 0.1 µM): 13% | residual activity (FLT1 (human); compound 1.0 µM): 4% | residual activity (FGFR1 (human); compound 0.01 µM): 53% | residual activity (FGFR1 (human); compound 0.1 µM): 22% | residual activity (FGFR1 (human); compound 1.0 µM): 3% | residual activity (JAK2 JH1 JH2 (human); compound 0.01 µM): 10% | residual activity (JAK2 JH1 JH2 (human); compound 0.1 µM): 12% | residual activity (JAK2 JH1 JH2 (human); compound 1.0 µM): 7% | residual activity (MARK4 (human); compound 0.01 µM): 10% | residual activity (MARK4 (human); compound 0.1 µM): 2% | residual activity (MARK4 (human); compound 1.0 µM): 1%
